Results taken from ChEMBL document CHEMBL3885881, “DrugMatrix”.

Organism: Rattus norvegicus
Test: DrugMatrix - Regimen: Daily Repeat
Format: toxicity, organism-based, Sprague-Dawley
Set-up: regimen Daily Repeat, gender Male, age 6-8 weeks
Conditions: in vivo, po, route oral GAVAGE, […]; for ABSOLUTE BASOPHIL / ABSOLUTE EOSINOPHIL / ABSOLUTE LYMPHOCYTE / ABSOLUTE MONOCYTE / ABSOLUTE SEGMENTED NEUTROPHIL / BASOPHIL / EOSINOPHIL / ERYTHROCYTE COUNT / HEMATOCRIT / HEMOGLOBIN / LEUKOCYTE COUNT / LYMPHOCYTE / MEAN CORPUSCULAR HEMOGLOBIN / MEAN CORPUSCULAR HEMOGLOBIN CONCENTRATION / MEAN CORPUSCULAR VOLUME / MONOCYTE / NEUTROPHIL / NUCLEATED RED BLOOD CELLS / PLATELET COUNT: tissue Blood; for ALANINE AMINOTRANSFERASE / ALBUMIN / ALKALINE PHOSPHATASE / ASPARTATE AMINOTRANSFERASE / BLOOD UREA NITROGEN / CARBON DIOXIDE / CHLORIDE / CHOLESTEROL / CREATINE PHOSPHOKINASE / CREATININE / GLUCOSE / LACTATE DEHYDROGENASE / LIPASE / PHOSPHORUS / POTASSIUM / SODIUM / TOTAL BILIRUBIN / TOTAL PROTEIN / URIC ACID: tissue Plasma
[1] = 0 mg/kg, 72 h, dose level Control, time 3 day
[2] = 0 mg/kg, 120 h, dose level Control, time 5 day
[3] = 30 mg/kg, 72 h, dose level Low, time 3 day

Question: What does the source list for `COC1=CC(=O)C[C@@H](C)[C@]12Oc1c(Cl)c(OC)cc(OC)c1C2=O` [GRISEOFULVIN]?
Answer: ABSOLUTE BASOPHIL [1]: 0 CELLS/uL; ABSOLUTE EOSINOPHIL [1]: 0 CELLS/uL; ABSOLUTE LYMPHOCYTE [1]: 14687.67 CELLS/uL; ABSOLUTE MONOCYTE [1]: 164 CELLS/uL; ABSOLUTE SEGMENTED NEUTROPHIL [1]: 1748.33 CELLS/uL; BASOPHIL [1]: 0%; EOSINOPHIL [1]: 0%; ERYTHROCYTE COUNT [1]: 5.51 x10E6/uL; HEMATOCRIT [1]: 33.68%; HEMOGLOBIN [1]: 13.4 G/DL; LEUKOCYTE COUNT [1]: 16.6 x10E3/uL; LYMPHOCYTE [1]: 88.83%; MEAN CORPUSCULAR HEMOGLOBIN [1]: 24.47 pg; MEAN CORPUSCULAR HEMOGLOBIN CONCENTRATION [1]: 39.82 G/DL; MEAN CORPUSCULAR VOLUME [1]: 61.23 fL; MONOCYTE [1]: 0.83%; NEUTROPHIL [1]: 10.33%; NUCLEATED RED BLOOD CELLS [1]: 0 /100WBC; PLATELET COUNT [1]: 1329.67 x10E3/uL; ALANINE AMINOTRANSFERASE [1]: 61.33 u/L; ALBUMIN [1]: 4.18 G/DL; ALKALINE PHOSPHATASE [1]: 332.5 u/L; ASPARTATE AMINOTRANSFERASE [1]: 98.33 u/L; BLOOD UREA NITROGEN [1]: 15.83 mg/dL; CARBON DIOXIDE [1]: 27.83 mmol/L; CHLORIDE [1]: 100 MEQ/L; CHOLESTEROL [1]: 76.17 mg/dL; CREATINE PHOSPHOKINASE [1]: 729.17 u/L; CREATININE [1]: 0.21 mg/dL; GLUCOSE [1]: 151.83 mg/dL; LACTATE DEHYDROGENASE [1]: 484.67 u/L; LIPASE [1]: 10 u/L; PHOSPHORUS [1]: 11.3 mg/dL; POTASSIUM [1]: 6.1 MEQ/L; SODIUM [1]: 142.9 MEQ/L; TOTAL BILIRUBIN [1]: 0.23 mg/dL; TOTAL PROTEIN [1]: 5.68 G/DL; URIC ACID [1]: 1.75 mg/dL; ABSOLUTE BASOPHIL [2]: 0 CELLS/uL; ABSOLUTE EOSINOPHIL [2]: 58.67 CELLS/uL; ABSOLUTE LYMPHOCYTE [2]: 15950.83 CELLS/uL; ABSOLUTE MONOCYTE [2]: 172.5 CELLS/uL; ABSOLUTE SEGMENTED NEUTROPHIL [2]: 2551.33 CELLS/uL; BASOPHIL [2]: 0%; EOSINOPHIL [2]: 0.33%; ERYTHROCYTE COUNT [2]: 5.5 x10E6/uL; HEMATOCRIT [2]: 34.05%; HEMOGLOBIN [2]: 13.42 G/DL; LEUKOCYTE COUNT [2]: 18.73 x10E3/uL; LYMPHOCYTE [2]: 84.5%; MEAN CORPUSCULAR HEMOGLOBIN [2]: 24.42 pg; MEAN CORPUSCULAR HEMOGLOBIN CONCENTRATION [2]: 39.42 G/DL; MEAN CORPUSCULAR VOLUME [2]: 61.97 fL; MONOCYTE [2]: 1%; NEUTROPHIL [2]: 14.17%; NUCLEATED RED BLOOD CELLS [2]: 0.33 /100WBC; PLATELET COUNT [2]: 1143.17 x10E3/uL; ALANINE AMINOTRANSFERASE [2]: 57 u/L; ALBUMIN [2]: 4.17 G/DL; ALKALINE PHOSPHATASE [2]: 347.33 u/L; ASPARTATE AMINOTRANSFERASE [2]: 93.67 u/L; BLOOD UREA NITROGEN [2]: 15.67 mg/dL; CARBON DIOXIDE [2]: 27.17 mmol/L; CHLORIDE [2]: 104.33 MEQ/L; CHOLESTEROL [2]: 69.5 mg/dL; CREATINE PHOSPHOKINASE [2]: 317.17 u/L; CREATININE [2]: 0.2 mg/dL; GLUCOSE [2]: 162.33 mg/dL; LACTATE DEHYDROGENASE [2]: 408.67 u/L; LIPASE [2]: 10.17 u/L; PHOSPHORUS [2]: 11.08 mg/dL; POTASSIUM [2]: 6.36 MEQ/L; SODIUM [2]: 146.07 MEQ/L; TOTAL BILIRUBIN [2]: 0.22 mg/dL; TOTAL PROTEIN [2]: 5.92 G/DL; URIC ACID [2]: 1.47 mg/dL; ABSOLUTE BASOPHIL [3]: 0 CELLS/uL; ABSOLUTE EOSINOPHIL [3]: 0 CELLS/uL; ABSOLUTE LYMPHOCYTE [3]: 15609 CELLS/uL; ABSOLUTE MONOCYTE [3]: 50.67 CELLS/uL; ABSOLUTE SEGMENTED NEUTROPHIL [3]: 2173.67 CELLS/uL; BASOPHIL [3]: 0%; EOSINOPHIL [3]: 0%; ERYTHROCYTE COUNT [3]: 5.42 x10E6/uL; HEMATOCRIT [3]: 34.33%; HEMOGLOBIN [3]: 13.33 G/DL; LEUKOCYTE COUNT [3]: 17.83 x10E3/uL; LYMPHOCYTE [3]: 87.67%; MEAN CORPUSCULAR HEMOGLOBIN [3]: 24.6 pg; MEAN CORPUSCULAR HEMOGLOBIN CONCENTRATION [3]: 38.9 G/DL; MEAN CORPUSCULAR VOLUME [3]: 63.3 fL; MONOCYTE [3]: 0.33%; NEUTROPHIL [3]: 12%; NUCLEATED RED BLOOD CELLS [3]: 0 /100WBC; PLATELET COUNT [3]: 1271.33 x10E3/uL; ALANINE AMINOTRANSFERASE [3]: 68.33 u/L; ALBUMIN [3]: 3.87 G/DL; ALKALINE PHOSPHATASE [3]: 322.67 u/L; ASPARTATE AMINOTRANSFERASE [3]: 105.67 u/L; BLOOD UREA NITROGEN [3]: 16 mg/dL; CARBON DIOXIDE [3]: 30.33 mmol/L; CHLORIDE [3]: 103 MEQ/L; CHOLESTEROL [3]: 72.67 mg/dL; CREATINE PHOSPHOKINASE [3]: 481 u/L; CREATININE [3]: 0.24 mg/dL; GLUCOSE [3]: 139.67 mg/dL; LACTATE DEHYDROGENASE [3]: 535 u/L; LIPASE [3]: 10 u/L; PHOSPHORUS [3]: 11.37 mg/dL; POTASSIUM [3]: 6.77 MEQ/L; SODIUM [3]: 145.27 MEQ/L; TOTAL BILIRUBIN [3]: 0.2 mg/dL; TOTAL PROTEIN [3]: 5.3 G/DL; URIC ACID [3]: 1.6 mg/dL
